US9080214B2, “Genetic markers for efficacy of iloperidone in the treatment of psychotic symptoms” (Vanda Pharmaceuticals, Inc., priority 2007, dated 2015)

System: individuals diagnosed with schizophrenia
Assay: Change in PANSS-N subscale by SNP genotype, patients on iloperidone 24 mg/day b.i.d. for 28 days (MMRM)
Assay type: in vivo, human
Text: Earlier studies investigated an association between a polymorphism in the CNTF gene and iloperidone efficacy as well as associations between CYP2D6 and KCNQ1 genotypes and changes in QT interval following the administration of iloperidone. The present study involved the genotyping of DNA samples collected from 426 individuals diagnosed with schizophrenia in an attempt to identify additional SNPs associated with iloperidone efficacy. Each sample was genotyped at more than 500,000 SNP loci using the GeneChip® Human Mapping 500K Array Set (Affymetrix, Santa Clara, Calif.) and using assays developed in-house. Approximately half of the participants in the study were administered 24 mg/day of iloperidone, b.i.d., for 28 days. About 25% of the patients were administered ziprasidone. The remaining participants were administered a placebo. Three analyses of the PANSS-T were conducted. 1) A two-step approach where samples were randomly split into 2 groups of iloperidone-treated patients used to discover SNPs associated with changed in PANSS-T (Discovery phase) and a second group to confirm the 100 most significant SNPs (Confirmatory phase). 2) A one-step approach using the Last Observation Carried Forward (LOCF) PANSS-T data of all iloperidone-treated patients. For each SNP, the most parsimonious genetic model (e.g., homozygous for one allele v. all other genotypes [i.e., AA v. AB and BB], heterozygous v. homozygous [i.e., AB v. AA and BB]) was established with respect to iloperidone efficacy using a one-way analysis of variance (ANOVA). 3) A Mixed-effects Model Repeated Measures (MMRM) analysis was subsequently conducted using the best genetic model of each SNP in the MMRM model. MMRM analyses were also conducted with the PANSS subscales PANSS-P, PANSS-N, and PANSS-GP. The SNPs with a statistically significant association in all 3 analyses of PANSS-T, as well as the best of each analysis were considered significant findings and are listed below in Table 1. Results for each of these SNPs with the PANSS-T scales and with the three subscales PANSS-P, PANSS-N, and PANSS-GP are shown in Tables 2, 3, 4, and 5, respectively. […] In the present case of iloperidone efficacy, it is likely that different markers are more specifically associated with one or a few specific clinical symptoms, which is reflected in the improvement measured in separate subscales.

COc1cc(C(C)=O)ccc1OCCCN1CCC(c2noc3cc(F)ccc23)CC1 [iloperidone, 1-[4-[3-[4-(6-fluoro-1,2-benzisoxazol-3-yl)-1-piperidinyl]propoxy]-3-methoxyphenyl]ethanone]
mean of change in PANSS-N (SNP_A-1819750 (CREG1) genotype A_A): −5.35
mean of change in PANSS-N (SNP_A-1819750 (CREG1) genotype A_B* (lowest response)): −2.01
mean of change in PANSS-N (SNP_A-1819750 (CREG1) genotype B_B): −4.01
mean of change in PANSS-N (SNP_A-1819750 (CREG1) genotype nonAB** (highest response)): −4.45
mean of change in PANSS-N (SNP_A-1860353 (RAP1B) genotype A_A** (highest response)): −11.00
mean of change in PANSS-N (SNP_A-1860353 (RAP1B) genotype A_B): −2.29
mean of change in PANSS-N (SNP_A-1860353 (RAP1B) genotype B_B): −2.73
mean of change in PANSS-N (SNP_A-1860353 (RAP1B) genotype nonAA* (lowest response)): −2.65
mean of change in PANSS-N (SNP_A-1934663 genotype A_A): −3.38
mean of change in PANSS-N (SNP_A-1934663 genotype A_B): −3.94
mean of change in PANSS-N (SNP_A-1934663 genotype B_B* (lowest response)): −2.06
mean of change in PANSS-N (SNP_A-1934663 genotype nonBB** (highest response)): −3.82
mean of change in PANSS-N (SNP_A-1973093 (KIAA0040) genotype A_A): −3.32
mean of change in PANSS-N (SNP_A-1973093 (KIAA0040) genotype A_B* (lowest response)): −1.85
mean of change in PANSS-N (SNP_A-1973093 (KIAA0040) genotype B_B): −3.46
mean of change in PANSS-N (SNP_A-1973093 (KIAA0040) genotype nonAB** (highest response)): −3.43
mean of change in PANSS-N (SNP_A-1975928 (SLC2A9) genotype A_A): −2.87
mean of change in PANSS-N (SNP_A-1975928 (SLC2A9) genotype A_B): −2.95
mean of change in PANSS-N (SNP_A-1975928 (SLC2A9) genotype B_B* (lowest response)): 0.62
mean of change in PANSS-N (SNP_A-1975928 (SLC2A9) genotype nonBB** (highest response)): −2.89
mean of change in PANSS-N (SNP_A-1987915 (GPR126) genotype A_A): −1.91
mean of change in PANSS-N (SNP_A-1987915 (GPR126) genotype A_B): −2.03
mean of change in PANSS-N (SNP_A-1987915 (GPR126) genotype B_B** (highest response)): −4.28
mean of change in PANSS-N (SNP_A-1987915 (GPR126) genotype nonBB* (lowest response)): −2.00
mean of change in PANSS-N (SNP_A-2007721 (LOC58486) genotype A_A): 0.51
mean of change in PANSS-N (SNP_A-2007721 (LOC58486) genotype A_B** (highest response)): −4.73
mean of change in PANSS-N (SNP_A-2007721 (LOC58486) genotype B_B): −2.33
mean of change in PANSS-N (SNP_A-2007721 (LOC58486) genotype nonAB* (lowest response)): −2.31
mean of change in PANSS-N (SNP_A-2044214 (HNT) genotype A_A): −3.32
mean of change in PANSS-N (SNP_A-2044214 (HNT) genotype A_B* (lowest response)): −2.16
mean of change in PANSS-N (SNP_A-2044214 (HNT) genotype B_B): −3.05
mean of change in PANSS-N (SNP_A-2044214 (HNT) genotype nonAB** (highest response)): −3.22
mean of change in PANSS-N (SNP_A-2048427 (NPAS3) genotype A_A): −4.12
mean of change in PANSS-N (SNP_A-2048427 (NPAS3) genotype A_B): −4.30
mean of change in PANSS-N (SNP_A-2048427 (NPAS3) genotype B_B* (lowest response)): −2.27
mean of change in PANSS-N (SNP_A-2048427 (NPAS3) genotype nonBB** (highest response)): −4.28
mean of change in PANSS-N (SNP_A-2070454 (NKX2-5) genotype A_A): −1.86
mean of change in PANSS-N (SNP_A-2070454 (NKX2-5) genotype A_B): −2.40
mean of change in PANSS-N (SNP_A-2070454 (NKX2-5) genotype B_B** (highest response)): −4.58
mean of change in PANSS-N (SNP_A-2070454 (NKX2-5) genotype nonBB* (lowest response)): −2.23
mean of change in PANSS-N (SNP_A-2076797 (NUDT9P1) genotype A_A): −1.75
mean of change in PANSS-N (SNP_A-2076797 (NUDT9P1) genotype A_B** (highest response)): −4.06
mean of change in PANSS-N (SNP_A-2076797 (NUDT9P1) genotype B_B): −1.62
mean of change in PANSS-N (SNP_A-2076797 (NUDT9P1) genotype nonAB* (lowest response)): −1.69
mean of change in PANSS-N (SNP_A-2103099 (HTR1A) genotype A_A): −4.08
mean of change in PANSS-N (SNP_A-2103099 (HTR1A) genotype A_B* (lowest response)): −2.09
mean of change in PANSS-N (SNP_A-2103099 (HTR1A) genotype B_B): −3.40
mean of change in PANSS-N (SNP_A-2103099 (HTR1A) genotype nonAB** (highest response)): −3.65
mean of change in PANSS-N (SNP_A-2120958 genotype A_A): −3.15
mean of change in PANSS-N (SNP_A-2120958 genotype A_B): −2.84
mean of change in PANSS-N (SNP_A-2120958 genotype B_B* (lowest response)): −1.11
mean of change in PANSS-N (SNP_A-2120958 genotype nonBB** (highest response)): −3.03
mean of change in PANSS-N (SNP_A-2170121 (C6) genotype A_A): −2.14
mean of change in PANSS-N (SNP_A-2170121 (C6) genotype A_B** (highest response)): −4.78
mean of change in PANSS-N (SNP_A-2170121 (C6) genotype B_B): −2.52
mean of change in PANSS-N (SNP_A-2170121 (C6) genotype nonAB* (lowest response)): −2.17
mean of change in PANSS-N (SNP_A-2274533 (LZTS1) genotype A_A** (highest response)): −3.67
mean of change in PANSS-N (SNP_A-2274533 (LZTS1) genotype A_B): −1.52
mean of change in PANSS-N (SNP_A-2274533 (LZTS1) genotype B_B): −1.16
mean of change in PANSS-N (SNP_A-2274533 (LZTS1) genotype nonAA* (lowest response)): −1.44
mean of change in PANSS-N (SNP_A-2283283 (XKR4) genotype A_A* (lowest response)): −0.95
mean of change in PANSS-N (SNP_A-2283283 (XKR4) genotype A_B): −3.20
mean of change in PANSS-N (SNP_A-2283283 (XKR4) genotype B_B): −3.62
mean of change in PANSS-N (SNP_A-2283283 (XKR4) genotype nonAA** (highest response)): −3.37
mean of change in PANSS-N (SNP_A-2284243 (GRIA4) genotype A_A): −3.70
mean of change in PANSS-N (SNP_A-2284243 (GRIA4) genotype A_B): −3.46
mean of change in PANSS-N (SNP_A-2284243 (GRIA4) genotype B_B* (lowest response)): −0.52
mean of change in PANSS-N (SNP_A-2284243 (GRIA4) genotype nonBB** (highest response)): −3.55
mean of change in PANSS-N (SNP_A-4204396 (CDH13) genotype A_A): −3.22
mean of change in PANSS-N (SNP_A-4204396 (CDH13) genotype A_B): −3.12
mean of change in PANSS-N (SNP_A-4204396 (CDH13) genotype B_B* (lowest response)): 1.62
mean of change in PANSS-N (SNP_A-4204396 (CDH13) genotype nonBB** (highest response)): −3.18
mean of change in PANSS-N (SNP_A-4212785 (PPP1R3B) genotype A_A* (lowest response)): 4.72
mean of change in PANSS-N (SNP_A-4212785 (PPP1R3B) genotype A_B): −3.06
mean of change in PANSS-N (SNP_A-4212785 (PPP1R3B) genotype B_B): −3.11
mean of change in PANSS-N (SNP_A-4212785 (PPP1R3B) genotype nonAA** (highest response)): −3.09
mean of change in PANSS-N (SNP_A-4230979 (ASB3) genotype A_A): −1.72
mean of change in PANSS-N (SNP_A-4230979 (ASB3) genotype A_B): −2.02
mean of change in PANSS-N (SNP_A-4230979 (ASB3) genotype B_B** (highest response)): −4.23
mean of change in PANSS-N (SNP_A-4230979 (ASB3) genotype nonBB* (lowest response)): −1.96
mean of change in PANSS-N (SNP_A-4256833 (MLCK) genotype A_A): −3.58
mean of change in PANSS-N (SNP_A-4256833 (MLCK) genotype A_B* (lowest response)): −0.86
mean of change in PANSS-N (SNP_A-4256833 (MLCK) genotype B_B): −3.69
mean of change in PANSS-N (SNP_A-4256833 (MLCK) genotype nonAB** (highest response)): −3.68
mean of change in PANSS-N (SNP_A-4258279 (RRM1) genotype A_A): −2.57
mean of change in PANSS-N (SNP_A-4258279 (RRM1) genotype A_B* (lowest response)): −1.09
mean of change in PANSS-N (SNP_A-4258279 (RRM1) genotype B_B): −3.34
mean of change in PANSS-N (SNP_A-4258279 (RRM1) genotype nonAB** (highest response)): −3.33
